Data from patent US11236055B2 (Venenum Biodesign, LLC, priority 2016, dated 2022).

How the values were obtained:
human TGR5 receptor = molecular target: T1, human TGR5 receptor (Homo sapiens, UniProt Q8TDU6); experiment: Human TGR5 cAMP production assay; type: cell-based; conditions: human TGR5, luminescent cAMP assay; coded A-D; read-out: Human TGR5 Lum. cAMP Activity (EC50)
T1 construct: host or cells: CHO-K1 (hTGR5-CHO cells)
T1 sequence (Q8TDU6 1-330): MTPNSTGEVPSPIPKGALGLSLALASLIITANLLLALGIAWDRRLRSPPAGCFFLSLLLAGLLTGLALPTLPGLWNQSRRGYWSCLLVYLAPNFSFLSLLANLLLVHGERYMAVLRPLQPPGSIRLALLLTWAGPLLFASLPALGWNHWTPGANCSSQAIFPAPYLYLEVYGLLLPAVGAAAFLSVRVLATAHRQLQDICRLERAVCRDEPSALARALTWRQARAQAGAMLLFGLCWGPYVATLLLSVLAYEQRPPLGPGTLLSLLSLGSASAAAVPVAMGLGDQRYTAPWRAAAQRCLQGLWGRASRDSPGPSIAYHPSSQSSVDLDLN
Summary of the method: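 Intracellular cAMP read by luminescent enzyme-complementation (XS+) after overnight development, following 1 h room-temperature compound treatment of hTGR5-CHO-K1 cells in IBMX plus anti-cAMP antibody. Compounds tested as half-log dilution series; EC50 derived.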

mouse TGR5 receptor = molecular target: T2, mouse TGR5 receptor (Mus musculus, UniProt Q80SS6); experiment: Mouse TGR5 cAMP production assay (HTRF, Cisbio cAMP HiRange); type: cell-based; conditions: HEK293-EBNA cells overexpressing mouse TGR5, HTRF cAMP HiRange; coded A-D
T2 construct: expressed in transfected cells; host or cells: HEK293-EBNA (293 c18, ATCC CRL10852), Hygromycin B selection
T2 sequence (Q80SS6 1-329): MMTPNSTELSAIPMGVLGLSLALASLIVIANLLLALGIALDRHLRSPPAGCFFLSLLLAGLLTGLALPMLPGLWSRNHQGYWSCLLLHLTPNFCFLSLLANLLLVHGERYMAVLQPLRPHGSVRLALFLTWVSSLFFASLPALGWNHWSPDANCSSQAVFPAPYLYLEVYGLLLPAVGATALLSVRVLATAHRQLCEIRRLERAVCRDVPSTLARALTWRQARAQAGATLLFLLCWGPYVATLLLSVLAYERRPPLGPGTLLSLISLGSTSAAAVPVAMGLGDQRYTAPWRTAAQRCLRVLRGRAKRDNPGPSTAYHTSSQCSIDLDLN
Summary of the method: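 cAMP read by HTRF competition after 1 h room-temperature compound exposure of mouse TGR5-overexpressing HEK293-EBNA cells. Cells were suspended in serum-free DMEM containing 500 μM IBMX; compounds ran as 12-point half-log dilutions in duplicate; EC50 derived.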

SMILES	EC50 (human TGR5 receptor)	EC50 (mouse TGR5 receptor)
Cc1cnccc1-c1cccc(C(C)(C)N(CCCNc2ncc(C(=O)O)cn2)S(=O)(=O)c2cccc(Cl)c2C)c1 [Compound 27, 2-((3-((3-chloro-2-methyl-N-(2-(3-(3-methylpyridin-4-yl)phenyl)propan-2-yl)phenyl)sulfonamido)propyl)amino)pyrimidine-5-carboxylic acid]	< 100 nM	100 to 999 nM
COc1cnccc1-c1cccc(C(CO)NS(=O)(=O)c2cccc(C(F)(F)F)c2)c1 (racemic) [Compound 17, (+/−) N-(2-hydroxy-1-(3-(3-methoxypyridin-4-yl)phenyl)ethyl)-3-(trifluoromethyl)benzenesulfonamide]	100 to 999 nM	1000 to 30000 nM
Cc1cnccc1-c1cccc(C(C)(C)N(CCCC(=O)NCCN)S(=O)(=O)c2cccc(Cl)c2C)c1 [Compound 21, N-(2-Aminoethyl)-4-(3-chloro-2-methyl-N-(2-(3-(3-methylpyridin-4-yl)phenyl)propan-2-yl)-phenylsulfonamido)butanamide]	< 100 nM	100 to 999 nM
Cc1cnccc1-c1cccc(C2CNCCN2S(=O)(=O)c2ccccc2C(F)(F)F)c1 (racemic) [Compound 44, (+/−) 2-(3-(3-methylpyridin-4-yl)phenyl)-1-((2-(trifluoromethyl)phenyl)sulfonyl)piperazine]	100 to 999 nM	100 to 999 nM
Cc1cnccc1-c1cccc(C2CN(C(=O)OC(C)(C)C)CCN2S(=O)(=O)c2ccccc2C(F)(F)F)c1 (racemic) [Compound 42, (+/−) tert-butyl 3-(3-(3-methylpyridin-4-yl)phenyl)-4-((2-(trifluoromethyl)phenyl)sulfonyl)-piperazine-1-carboxylate]	1000 to 30000 nM	1000 to 30000 nM
Cc1cnccc1-c1cccc(C(CCCCC#N)NS(=O)(=O)c2cccc(Cl)c2C)c1 (stereo not drawn) [Compound 35, 3-chloro-N-(5-cyano-1-(3-(3-methylpyridin-4-yl)phenyl)pentyl)-2-methylbenzenesulfonamide]	100 to 999 nM	100 to 999 nM
Cc1cnccc1-c1cccc([C@H](CC(=O)O)NS(=O)(=O)c2ccccc2C(F)(F)F)c1 [Compound 18, (S)-3-(3-(3-methylpyridin-4-yl)phenyl)-3-(2-(trifluoromethyl)phenylsulfonamido)propanoic acid]	1000 to 30000 nM	100 to 999 nM
CC(=O)Nc1cc(-c2cccc(C(C)(C)NS(=O)(=O)c3cccc(C(F)(F)F)c3)c2)ccn1 [Compound 9, N-(4-(3-(2-(3-(trifluoromethyl)phenylsulfonamido)propan-2-yl)phenyl)pyridin-2-yl)acetamide]	1000 to 30000 nM	1000 to 30000 nM
Cc1cnccc1-c1cccc([C@H](C)N(CCCC(=O)NCCS(=O)(=O)O)S(=O)(=O)c2ccccc2C(F)(F)F)c1	< 100 nM	100 to 999 nM
Cc1cnccc1-c1cccc(C2CCCN2S(=O)(=O)c2ccccc2C(F)(F)F)c1 (racemic) [Compound 41, (+/−) 3-Methyl-4-(3-(1-((2-(trifluoromethyl)phenyl)sulfonyl)pyrrolidin-2-yl)phenyl)pyridine]	< 100 nM	100 to 999 nM

Results, then the compound that gave them:

EC50 (human TGR5 receptor)	EC50 (mouse TGR5 receptor)	SMILES
< 100 nM	100 to 999 nM	Cc1cnccc1-c1cccc([C@H](C)N(CCCC(=O)N2CCC[C@H]2C(=O)O)S(=O)(=O)c2cccc(Cl)c2C)c1 [Compound 21AJ, (S)-1-(4-(3-chloro-2-methyl-N-((S)-1-(3-(3-methylpyridin-4-yl)phenyl)ethyl)phenylsulfonamido)butanoyl)pyrrolidine-2-carboxylic acid]
< 100 nM	< 100 nM	COc1cnccc1-c1cccc(C2CN(C(=O)CS(=O)(=O)O)CCN2S(=O)(=O)c2cccc(Cl)c2C)c1 (stereo not drawn) [Compound 49AF, 2-(4-((3-chloro-2-methylphenyl)sulfonyl)-3-(3-(3-methoxypyridin-4-yl)phenyl)piperazin-1-yl)-2-oxoethanesulfonic acid]
100 to 999 nM	< 100 nM	Cc1cnccc1-c1cccc(C2CN(C(=O)CCC(=O)O)CCN2S(=O)(=O)c2ccccc2C)c1 (stereo not drawn) [Compound 46AI, 4-(3-(3-(3-methylpyridin-4-yl)phenyl)-4-(o-tolylsulfonyl)piperazin-1-yl)-4-oxobutanoic acid]
100 to 999 nM	100 to 999 nM	Cc1c(Cl)cccc1S(=O)(=O)N(CCCC(=O)O)[C@@H](C)c1cccc(-c2ccncc2)c1 [Compound 14AD, (S)-4-(3-chloro-2-methyl-N-(1-(3-(pyridin-4-yl)phenyl)ethyl)phenylsulfonamido)butanoic acid]
100 to 999 nM	100 to 999 nM	Cc1cnccc1-c1cccc([C@H](CC(=O)N(C)C)NS(=O)(=O)c2ccccc2C(F)(F)F)c1 [Compound 5BB, (S)-N,N-dimethyl-3-(3-(3-methylpyridin-4-yl)phenyl)-3-(2-(trifluoromethyl)phenylsulfonamido)propanamide]
< 100 nM	100 to 999 nM	Cc1cnccc1-c1cccc(C(C)(C)N(CCCC(=O)NCCNC(=O)OC(C)(C)C)S(=O)(=O)c2cccc(Cl)c2C)c1 [Compound 20AV, tert-butyl (2-(4-(3-chloro-2-methyl-N-(2-(3-(3-methylpyridin-4-yl)phenyl)propan-2-yl)phenylsulfonamido)butanamido)ethyl)carbamate]
< 100 nM	< 100 nM	Cc1cnccc1-c1cccc(C(C)(C)N(CCCC(=O)N[C@H](C)C(=O)O)S(=O)(=O)c2cccc(Cl)c2C)c1 [Compound 21AE, (R)-2-(4-(3-chloro-2-methyl-N-(2-(3-(3-methylpyridin-4-yl)phenyl)propan-2-yl)phenylsulfonamido)butanamido)propanoic acid]
100 to 999 nM	< 100 nM	Cc1cnccc1-c1cccc([C@H](C)N(CCCC(=O)NS(=O)(=O)CCC(=O)O)S(=O)(=O)c2cccc(Cl)c2C)c1 [Compound 20BW, (S)-3-(N-(4-(3-chloro-2-methyl-N-(1-(3-(3-methylpyridin-4-yl)phenyl)ethyl)phenylsulfonamido)butanoyl)sulfamoyl)propanoic acid]
< 100 nM	< 100 nM	CCc1cnccc1-c1cccc([C@H](C)N(CCCCC(=O)O)S(=O)(=O)c2cccc(Cl)c2C)c1 [Compound 16AG, (S)-5-(3-chloro-N-(1-(3-(3-ethylpyridin-4-yl)phenyl)-ethyl)-2-methylphenyl-sulfonamido)pentanoic acid]
100 to 999 nM	1000 to 30000 nM	Cc1c(Cl)cccc1S(=O)(=O)N[C@@H](C)c1cccc(-c2ccnnc2)c1 [Compound 1BP]
< 100 nM	100 to 999 nM	Cc1cnccc1-c1cccc([C@H](C)N(CCCC(=O)NCCOCCOCCOCCC(=O)O)S(=O)(=O)c2cccc(Cl)c2C)c1 [Compound 20AU, (S)-3-((3-chloro-2-methylphenyl)sulfonyl)-2-(3-(3-methylpyridin-4-yl)phenyl)-7-oxo-11,14,17-trioxa-3,8-diazaicosan-20-oic acid]
100 to 999 nM	1000 to 30000 nM	CC(C)(NS(=O)(=O)c1ccccc1C(F)(F)F)c1cccc(-c2ccc3nccn3c2)c1 [Compound 5AJ, N-(2-(3-(imidazo[1,2-a]pyridin-6-yl)phenyl)propan-2-yl)-2-(trifluoromethyl)benzenesulfonamide]
100 to 999 nM	100 to 999 nM	Cc1cnccc1-c1cccc([C@H](C)N(CCOCC(=O)O)S(=O)(=O)c2cccc(Cl)c2C)c1 [Compound 16AM, (S)-2-(2-(3-chloro-2-methyl-N-(1-(3-(3-methylpyridin-4-yl)phenyl)ethyl)phenylsulfonamido)ethoxy)acetic acid]
1000 to 30000 nM	1000 to 30000 nM	Cc1cncnc1-c1cccc(C(C)(C)NS(=O)(=O)c2ccccc2C(F)(F)F)c1 [Compound 6AA, N-(2-(3-(5-methylpyrimidin-4-yl)phenyl)propan-2-yl)-2-(trifluoromethyl)benzenesulfonamide]
100 to 999 nM	< 100 nM	CCc1cnccc1-c1cccc([C@H](C)N(CCCCN)S(=O)(=O)c2cccc(Cl)c2C)c1 [Compound 24AC, (S)-N-(4-aminobutyl)-3-chloro-N-(1-(3-(3-ethylpyridin-4-yl)phenyl)ethyl)-2-methylbenzenesulfonamide]
100 to 999 nM	< 100 nM	Cc1c(Cl)cccc1S(=O)(=O)N1CCN(C(=O)CS(=O)(=O)O)CC1c1cccc(-c2ccncc2Cl)c1 (stereo not drawn) [Compound 49AE, 2-(4-((3-chloro-2-methylphenyl)sulfonyl)-3-(3-(3-chloropyridin-4-yl)phenyl)piperazin-1-yl)-2-oxoethanesulfonic acid]
< 100 nM	< 100 nM	Cc1cnccc1-c1cccc([C@H](C)N(CCCC(=O)NCCNS(=O)(=O)NOC(C)(C)C)S(=O)(=O)c2cccc(Cl)c2C)c1 [Compound 37A]
